Experimental data taken from US20230310386A1, “INJECTABLE PHARMACEUTICAL COMPOSITIONS AND USES THEREOF” (Intervet Inc., priority 2020, published 2023).
“And” between values parts separate entries of the source, which are not always exact repeats. Equal values may be shown once.

Test: Dose accuracy study of the reconstituted composition comprising moxidectin and fluralaner
Assay type: physicochemical
Conditions: reconstituted composition of Example 9, 1 mL doses #1-6
Procedure: The vial comprising moxidectin microspheres from Example 3 and fluralaner particles from Example 7 were reconstituted with 17 mL of the aqueous carrier of Example 6. During reconstitution the vial containing the moxidectin microspheres and fluralaner particles was rotated while being held horizontally throughout carrier addition.
Once all the carrier was added, the vial was shaken for 1 minute.
Herein, the vial with the reconstituted composition as described above was manipulated in one of the following ways: • vigorously hand shaken for 1, 2 or 3 minutes prior to sampling; • vigorously hand shaken for 3 minutes and mixed using the syringe 5 times prior to sampling; or • vigorously hand shaken for 3 minutes, mixed using the syringe 5 times and vortexed for […] prior to sampling.
After the solid material was completely suspended, six 1 mL doses were sampled from the vial. Prior to each dose, the vial was vigorously shaken for 15 seconds to avoid settling between samples.
Each of the six doses were transferred to a separate 50 mL volumetric flask along with 10 mL of water: then the samples were diluted to volume with 50/50 acetonitrile/isopropanol and sonicated for 20 minutes.
These samples were analysed to determine the moxidectin concentration.
Additionally, 1 mL of the samples were transferred into separate 25 mL volumetric flasks and diluted with 40/40/20 acetonitrile/isopropanol/water. The fluralaner concentrations were determined from these diluted samples.

For `Cc1cc(C2=NOC(c3cc(Cl)cc(Cl)c3)(C(F)(F)F)C2)ccc1C(=O)NCC(=O)NCC(F)(F)F` (centres unmarked) [Fluralaner, 4-[5-(3,5-dichlorophenyl)-5-trifluoromethyl-4,5-dihydroisoxazol-3-yl]-2-methyl-N-[(2,2,2-trifluoro-ethylcarbamoyl)-methyl]-benzamide], the “Fluralaner Percent Label Claim” value (hand shaken for 1 minute) was 104.38 Percent Label Claim and 90.80 Percent Label Claim and 102.68 Percent Label Claim and 101.83 Percent Label Claim and 106.97 Percent Label Claim and 103.52 Percent Label Claim, the “Fluralaner Percent Label Claim” value (hand shaken for 2 minutes) was 80.44 Percent Label Claim and 103.67 Percent Label Claim and 102.82 Percent Label Claim and 84.95 Percent Label Claim and 99.01 Percent Label Claim and 107.40 Percent Label Claim and the “Fluralaner Percent Label Claim” value (hand shaken for 3 minutes) was 95.36 Percent Label Claim and 102.59 Percent Label Claim and 95.41 Percent Label Claim and 99.43 Percent Label Claim and 108.06 Percent Label Claim and 88.68 Percent Label Claim. For the same compound, the “Fluralaner Percent Label Claim” value (hand shaken for 3 minutes and mixed using a syringe) was 105.95 Percent Label Claim and 104.31 Percent Label Claim and 89.74 Percent Label Claim and 105.87 Percent Label Claim and 104.26 Percent Label Claim and 103.83 Percent Label Claim and the “Fluralaner Percent Label Claim” value (hand shaken for 3 minutes, mixed using a syringe, and vortexed) was 100.86 Percent Label Claim and 106.80 Percent Label Claim and 105.14 Percent Label Claim and 105.86 Percent Label Claim and 106.37 Percent Label Claim and 104.61 Percent Label Claim.
